Assays:
Laodelphax striatellus = assay: Insecticidal activity against 1 to 3 day-old adult Laodelphax striatella (small brown planthopper) infested compound-treated rice seedlings assessed as mortality measured after 3 days; assay type: functional
Nephotettix cincticeps = assay: Insecticidal activity against 1 to 3 day-old adult Nephotettix cincticeps (green rice leafhopper) infested in compound-treated rice seedlings assessed as mortality measured after 3 days; assay type: functional

Compound | LC70 (Laodelphax striatellus) | LC70 (Nephotettix cincticeps)
CN/C(=N\[N+](=O)[O-])NCC1COC(C)(C)C1 (configuration not stated) | 100 ppm | 1 ppm
CN/C(=N/CC1CCOC1)N[N+](=O)[O-] (configuration not stated) [DINOTEFURAN] | 0.1 ppm | 0.1 ppm
CCC1COCC1CN/C(=C/[N+](=O)[O-])NC (mixture of isomers) | >1000 ppm | 100 ppm
CN/C(=N\[N+](=O)[O-])NCC1COCC1C (mixture of isomers) | 10 ppm | 1 ppm
CN/C(=N\[N+](=O)[O-])NCC1COC(C)C1 (mixture of isomers) | 10 ppm | 1 ppm
CN/C(=N\[N+](=O)[O-])NCC1CCOC1OC (mixture of isomers) | >1000 ppm | >1000 ppm
O=[N+]([O-])/N=C1\NCCCN1CC1CCOC1 (configuration not stated) | 1 ppm | 0.1 ppm
CCC1COCC1CN1CCCN/C1=C\[N+](=O)[O-] (mixture of isomers) | 100 ppm | >1000 ppm
CC1CC(CN2CCCN/C2=N\[N+](=O)[O-])CO1 (mixture of isomers) | 1 ppm | 0.1 ppm
CC1(C)CC(CN2CCCN/C2=C\[N+](=O)[O-])CO1 (configuration not stated) | 1 ppm | 1 ppm
CN/C(=C\[N+](=O)[O-])NCC1CCOC1 (configuration not stated) | 0.1 ppm | 0.1 ppm
CN/C(=C\[N+](=O)[O-])NCC1CCOC1OC (mixture of isomers) | >1000 ppm | >1000 ppm
CN/C(=N\[N+](=O)[O-])NCC1CCOC1C (configuration not stated) | >1000 ppm | >1000 ppm
CN/C(=C\[N+](=O)[O-])NCC1COC(C)C1 (mixture of isomers) | 10 ppm | 1 ppm
CN/C(=N\[N+](=O)[O-])NCC1COC(c2ccccc2)C1 (mixture of isomers) | >1000 ppm | >1000 ppm
CCC1COCC1CN/C(=N/[N+](=O)[O-])NC (mixture of isomers) | >1000 ppm | 100 ppm
CN/C(=N\[N+](=O)[O-])NCC1(C)COCC1C (mixture of isomers) | >1000 ppm | >1000 ppm
CN/C(=N\[N+](=O)[O-])NCC1(C)CCOC1 (configuration not stated) | >1000 ppm | >1000 ppm
CN/C(=C\[N+](=O)[O-])NCC1COCC1C (mixture of isomers) | 1 ppm | 1 ppm
CC1(C)CC(CN2CCCN/C2=N\[N+](=O)[O-])CO1 (configuration not stated) | 10 ppm | 1 ppm
CC1COCC1CN1CCCN/C1=C\[N+](=O)[O-] (mixture of isomers) | 1 ppm | 0.1 ppm
O=[N+]([O-])/C=C1\NCCCN1CC1CCOC1 (configuration not stated) | 1 ppm | 0.1 ppm
CN/C(=C\[N+](=O)[O-])NCC1CCOC1C (mixture of isomers) | >1000 ppm | >1000 ppm
CC1CC(CN2CCCN/C2=C\[N+](=O)[O-])CO1 (mixture of isomers) | 1 ppm | 1 ppm
CC1COCC1CN1CCCN/C1=N\[N+](=O)[O-] (mixture of isomers) | 10 ppm | 0.1 ppm
CN/C(=C\[N+](=O)[O-])NCC1COC(C)(C)C1 (configuration not stated) | 10 ppm | 1 ppm

— ChEMBL document CHEMBL3044941, “Synthesis and Structure-Activity Relationships of Dinotefuran Derivatives: Modification in the Tetrahydro-3-furylmethyl Part” (2004)
